Data published in US9517229B2, “Treatment of breast cancer” (MEDIVATION PROSTATE THERAPEUTICS, INC., priority 2011, dated 2016).

Legend:
MCF7-TGL cells = assay: Estrogen stimulated MCF7-TGL orthotopic tumors in ovariectomized nude mice; assay type: in vivo; conditions: for BrdU staining of tumor sections, P vs E2 group: BrdU two hours prior to sacrifice, ANOVA with Bonferroni correction, FIG. 11D
Experimental: MCF7-TGL cells stably expressing luciferase were implanted orthotopically in the mammary gland of ovariectomized female nude mice. […] The beginning of treatment is indicated by an arrow. Tumor burden was measured by whole body luminescence. […] Mice were matched on day −3 and treatment began on day 0. * indicates P<0.05, ANOVA with Bonferroni's multiple comparison test correction (FIG. 11A). The total luminescent flux is shown for all individual mice at the day of matching (Day −3) and at the final imaging day (Day 11). * indicates P<0.05, ANOVA with Bonferroni's multiple comparison test correction (FIG. 11B). Images of luminescent signal in the two treatment groups at the day of matching ([…]) and the final day of imaging (day 11) is shown (FIG. 11C). Mice were injected with BrdU two hours prior to sacrifice.

MDA-MB-453 cells [1] = assay: MDA-MB-453 xenograft in mammary fat pad of NOD-SCID-IL2Rgc-/- mice with DHT pellet (Example 7); assay type: in vivo
MCF7 cells [2] = assay: MTT in vitro proliferation assay, DHT-mediated growth in MCF7 cells; assay type: cell-based; conditions: 10 μM RD162′ with 10 nM DHT; MTT at various time points; FIG. 1
MCF7 cells [3] = assay: MTT assay, estradiol-mediated growth in MCF7 cells; assay type: cell-based; conditions: 10 μM RD162′ with 10 nM estradiol (E2); MTT at various time points; FIG. 3
Experimental: MCF7 cells were plated in phenol red-free medium containing charcoal stripped serum. […] An MTT assay was performed at various time points. The values were normalized to an untreated plate read 24 hours after plating to account for differences in cell density.

MCF7 cells [4] = assay: MCF7 luciferase tumors in mammary fat pad of ovariectomized nod/scid mice with DHT pellet; assay type: in vivo; conditions: chow containing 50 mg/kg RD162′ from day 22, FIGS. 5A-D
Hs578T cells = assay: MTS viable cell assay in Hs578T TNBC cell line; assay type: cell-based; conditions: RD162′ 10 μM, DHT 10 nM, 9 days, FIG. 8
Experimental: Viable cells were assayed by MTS assay. Averages of the triplicate data points are shown with standard deviation. ***p<0.001 (two-tail t-test).

BT20 cells = assay: MTT assay in triple negative breast cancer cell line BT20; assay type: cell-based; conditions: 10 μM RD162′, FIG. 6B
[5] = system: androgen-dependent luciferase reporter in MDA-kb2 cells; assay: Luciferase assay in MDA-kb2 cells with androgen-dependent luciferase reporter; assay type: cell-based; conditions: FIG. 7B
MDA-MB-453 tumors = assay: Androgen stimulated MDA-MB-453 orthotopic tumors in NOD-SCID-IL2Rgc-/- mice (Example 10); assay type: in vivo
BCK4 cells = assay: Proliferation assay, DHT-mediated growth in BCK4 cells; assay type: cell-based; conditions: RD162′ and DHT; FIG. 2
MDA468 cells = assay: MTT assay in triple negative breast cancer cell line MDA468; assay type: cell-based; conditions: 10 μM RD162′, FIG. 6C
MDA-MB-453 cells [6] = assay: MTS in vitro proliferation assay, DHT-induced proliferation of MDA-MB-453 cells; assay type: cell-based; conditions: 10 μM RD162′, 10 nM DHT, FIG. 7A

SMILES | BrdU staining of tumor sections, P vs E2 group (MCF7-TGL cells) | DHT induced tumor growth (tumor weight at necropsy) (MDA-MB-453 cells [1]; 10 mg/kg/d and 25 mg/kg/d RD162′ by oral gavage, both doses, FIG. 7E) | tumor growth induced by DHT (caliper tumor size) (MDA-MB-453 cells [1]; 10 mg/kg/d or 25 mg/kg/d RD162′ by oral gavage, either dose, FIG. 7D) | DHT-mediated growth of MCF7 cells (MCF7 cells [2]) | estradiol-mediated growth of MCF7 cells (MCF7 cells [3]) | DHT-mediated tumor growth in vivo (caliper and IVIS imaging) (MCF7 cells [4]) | growth of Hs578T cells (viable cells) (Hs578T cells) | cell growth of BT20 (BT20 cells) | cell viability of BT20 (BT20 cells) | DHT-induced signal in luciferase assay (printed as proliferation) [5] | androgen stimulated growth of MDA-MB-453 tumors (MDA-MB-453 tumors; RD162′ 10 mg/kg daily oral gavage from 100 mm^3, DHT pellet, FIGS. 10A-D) | tumor volume, DHT vs DHT+RD162′ (MDA-MB-453 tumors; RD162′ 25 mg/kg by oral gavage started when tumors reached 400 mm^3, weekly caliper, FIG. 10A) | DHT-mediated growth of BCK4 cells (BCK4 cells) | cell growth of MDA468 (MDA468 cells) | cell viability of MDA468 (MDA468 cells) | inhibition of estrogen stimulated tumor growth (whole body luminescence) (MCF7-TGL cells; chow containing 50 mg/kg RD162′ vs tamoxifen pellet SQ, E2 pellet, FIGS. 11A-C) | proliferation of MDA-MB-453 cells induced by DHT (MDA-MB-453 cells [6])
CC/C(=C(\c1ccccc1)c1ccc(OCCN(C)C)cc1)c1ccccc1 [Tamoxifen, tamoxifen, reference compound] | < 0.01 | – | – | – | – | – | – | – | – | – | – | – | – | – | – | – | –
CNC(=O)c1ccc(N2C(=S)N(c3ccc(C#N)c(C(F)(F)F)c3)C(=O)C2(C)C)cc1F [RD162′, enzalutamide] | < 0.001 | significantly inhibited DHT induced tumor growth | inhibited tumor growth | blocks DHT-mediated growth | blocks estradiol-mediated growth | inhibits DHT-mediated tumor growth | Inhibits the Growth | inhibits cell growth | decreases cell viability | inhibits proliferation induced by DHT in a dose dependent manner | Inhibits Androgen Stimulated Growth | no significant differences at any time point | blocks DHT-mediated growth | inhibits cell growth | decreases cell viability | as Effective as Tamoxifen | inhibits proliferation
C[C@]12CCC(=O)C[C@@H]1CC[C@@H]1[C@@H]2CC[C@]2(C)[C@@H](O)CC[C@@H]12 [DHT, dihydrotestosterone, reference compound] | – | – | – | – | – | – | does not increase the growth | – | – | – | – | – | – | – | – | – | –
